Reference: US11332716B2, “Methods and compositions for producing pancreatic beta cells” (The Regents of the University of California, priority 2015, dated 2022)

Key:
[1] = test system: Dox-inducible secondary mouse embryonic fibroblasts (MEFs); experiment: Direct reprogramming of fibroblasts into definitive endoderm-like cells (Sox17/Foxa2); format: cell-based; details: treatment in first two steps
Method: To extend and test the iPSC-factor-based lineage-specific reprogramming paradigm to endoderm, a two-step process was first devised to directly reprogram secondary MEF cells into definitive endoderm-like cells (DELCs). The first step (step I) involved culturing secondary MEF cells in media (Med-I) that is supplemented with 4 μg/ml Dox to initiate epigenetic activation. The second step (step II) was culturing the epigenetically activated cells in Med-II supplemented with 50 ng/ml Activin A and 1 mM LiCl (hereafter referred to as Activin/Li). […] Hereafter these Sox17/Foxa2 double-positive cells are referred to as definitive endoderm-like cells (DELCs).
To test this hypothesis, conditions were evaluated in which definitive endoderm induction factors (Activin/Li) were added to fibroblasts either after (Approach-I) or during (Approach II) iPSC factor expression, using Sox17 and Foxa2 expression as a measure of DELC induction (FIG. 1A).

[2] = test system: Dox-inducible secondary mouse embryonic fibroblasts (MEFs); experiment: Pdx1+/Nkx6.1+ colony number on day 16 after small molecules in first/second step; details: 1 μM Bix-01294 D0 to D6; 280 μM pVc D0 to D12; readout day 16
[3] = test system: pancreatic progenitor-like cells (PPLCs); experiment: Maturation of PPLCs into pancreatic-like cells (insulin/Pdx1, day 25); details: 5 μM SB203580 or 280 μM pVc used individually
[4] = test system: definitive endoderm-like cells (DELCs); experiment: Induction of pancreatic progenitor-like cells from DELCs (Pdx1/Nkx6.1 staining); format: cell-based, mouse; details: 400-compound collection; confirmed in larger-well cultures
Method: At the end of treatment, lineage specific markers were analyzed by immunostaining and/or real-time.
Primary antibodies used were Sox17 (R&D), Foxa2 (Millipore), Pdx1 (R&D), Hnf6 (Santa Cruz), Pax6 (Covance), Sox9 (Santa Cruz), Nkx6.1 (Developmental Studies Hybridoma Bank), Insulin (Dako), Glucagon (Sigma), Somatostatin (Abeam), Amylase (Abeam), and CK19 (Abcam). Nuclei were visualized by DAPI (Sigma-Aldrich) staining Images were captured using a Nikon Eclipse TE2000-U microscope.
An available drug collection of 400 compounds in the 48well format was screened to identify small molecules that induce high percentages of Pdx 1^+/NKx6.1^+ cells in DELC populations. Med-III medium (DMEM supplemented with 1 kB27, 2 mM GLUTAMAX™) was used as the basal condition and double staining of Pdx1 and Nkx 6.1 at 4 days post-induction was used as the readout.

[5] = molecular target: p38 MAPK (Homo sapiens, UniProt Q16539); details: read-out: IC50 for p38 MAPK; cited from earlier work
[6] = test system: HDAC activity in HeLa extracts; details: read-out: IC50 for inhibition of HDAC activity; cited from earlier work
[7] = test system: pancreatic endodermal progenitor (cPE) cells; experiment: Protocol 2 maturation of cPE cells into cPB cells (INSULIN mRNA, C-peptide cells)
[8] = test system: pancreatic endodermal progenitor cells (cPE cells); experiment: Maturation of cPE cells into C-peptide positive cells, chemical screen; details: added individually to basal pancreatic differentiation media
[9] = test system: histone deacetylases (HDACs); details: isoform not stated; read-out: IC50 (histone deacetylase); cited from earlier work
[10] = test system: MEL1 INS GFP/W hESC spheres; experiment: hESC suspension differentiation, flow cytometry of PDX1 and NKX6.1; format: cell-based, human; details: day 9.5
From the text: Treatments consisted of combinations of Cyclopamine (C), Noggin (N), and retinoic acid (R) during days 6-8, followed by subdivision of each condition into three treatment groups during day 9-9.5. Group 1) continuation of day 6-8 treatment; Group 2) treatment with EGF and KGF (EK); Group 3) treatment with EGF, KGF, and Noggin (EKN). […] Data shown are representatives of results obtained in two independent experiments. […] FIG. 17B: Quantification of PDX1 (orange gate) and NKX6.1 (blue gate) protein expressing cells in individual conditions after 9.5 days of differentiation.
Suspension-based differentiations were carried out as follows. Briefly, confluent cultures were dissociated into single cell suspension by incubation with TrypLE (Gibco). […] To induce definitive endoderm differentiation, aggregates were collected 24 hours later in a 50 ml falcon tube, allowed to settle by gravity, washed once with PBS and re-suspended in d1 media (RPMI (Gibco) containing 0.2% FBS, 1:5000 ITS (Gibco), 100 ng/ml Activin A, and 50 ng/ml WNT3a (R&D systems)). Clusters from 3 wells were combined into 2 wells at this point and distributed into fresh low-attachment plates in 5.5 ml d1 media. Media thereafter was changed daily, by removing either 4.5 ml media (at the end of d1) or 5.5 ml media the following days and adding back 5.5 ml fresh media until day 9. After day 9, only 5 ml of media was removed and added daily.
Briefly, spheres were collected and allowed to settle by gravity. Clusters were washed once in PBS and dissociated by gentle pipetting after 12-15 minutes incubation in Accumax (Innovative Cell Technologies). For sorting, cell suspensions were filtered and re-suspended in FACS buffer consisting of phosphate-buffered saline (PBS) (UCSF cell culture facility) containing 2 mM EDTA (Ambion) and 1% BSA (Sigma). Dead cells were excluded by DAPI (Sigma) staining Cell sorting was performed on a FACS Aria II (BD Bioscience). […]

[11] = test system: Human foreskin fibroblasts (CRL-2097); experiment: Conversion of human fibroblasts into definitive endodermal progenitor cells (FOXA2 positive colonies); details: Parnate, RG108 condition

p38 MAPK, sequence (Q16539 whole entry): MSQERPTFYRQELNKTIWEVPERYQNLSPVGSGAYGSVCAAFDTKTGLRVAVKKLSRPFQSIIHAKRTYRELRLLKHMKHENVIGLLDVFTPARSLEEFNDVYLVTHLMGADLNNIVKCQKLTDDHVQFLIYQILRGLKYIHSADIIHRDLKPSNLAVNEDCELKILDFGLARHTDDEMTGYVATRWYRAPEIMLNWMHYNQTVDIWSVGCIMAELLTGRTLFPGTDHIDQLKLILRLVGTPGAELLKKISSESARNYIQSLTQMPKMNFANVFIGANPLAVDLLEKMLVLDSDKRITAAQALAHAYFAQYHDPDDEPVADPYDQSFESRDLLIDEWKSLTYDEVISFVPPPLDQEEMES

In the case of “2-Phospho-L-ascorbic acid trisodium salt [pVc]”, the “numbers of Sox17 and Foxa2 single positive and double positive cells” value [1] is reported as “no significant influence”, the “number of Pdx1+/Nkx6.1+ colonies” value [2] is reported as about 4 fold and the “number of insulin+/Pdx1+ double-positive cells” value [3] is reported as “significantly increased”. For the same compound, the “screen result: increase of Pdx1 and/or Nkx6.1 expression” value (“screen result: increase” below) [4] was “Confirmed hits”.

In the case of Cc1cccc(-c2nn(C(=S)Nc3ccccc3)cc2-c2ccnc3ccccc23)n1 [A83-01, 3-(6-Methyl-2-pyridinyl)-N-phenyl-4-(4-quinolinyl)-1H-pyrazole-1-carbothioamide], the “screen result: increase” value [4] is reported as “Confirmed hits”.

In the case of Cc1cccc(-c2n[nH]cc2-c2ccc3ncccc3n2)n1 [ALK5 inhibitor II, 2-(3-(6-methylpyridine-2-yl)-1H-pyrazol-4-yl)-1,5-naphthyridine], the IC50 [5] is listed as over 16000 nM.

For Nc1ccccc1NC(=O)CCCCCCC(=O)Nc1ccccc1 [BML-210, N1-(2-aminophenyl)-N8-phenyl-octanediamide], the IC50 [6] is listed as about 80000 nM.

For COC(=O)C1=C(C)NC(C)=C([N+](=O)[O-])C1c1ccccc1C(F)(F)F (centres unmarked) [BayK-8644, 3-pyridinecarboxylic acid, 1,4-dihydro-2,6-dimethyl-5-nitro-4-(2-(trifluoromethyl)phenyl), methyl ester], the “number of C-peptide positive cells co-expressing PDX1 and NKX6.1” value [7] was “increased”, the “expression of the INSULIN gene (mRNA)” value ([7]; day 21, compared to DMSO controls) was “promoted expression” and the “percentage of C-peptide positive cells, individual supplementation” value [8] was “effective in increasing”.

With COc1cc2nc(N3CCCN(C)CC3)nc(NC3CCN(Cc4ccccc4)CC3)c2cc1OC [Bix-01294] the “numbers of Sox17 and Foxa2 single positive and double positive cells” value [1] was “no significant influence” and the “number of Pdx1+/Nkx6.1+ colonies” value [2] was “about 3 fold”.

In the case of CC1(C)NC(=O)C(CCCCCC(=O)[C@H]2CO2)NC(=O)C2CCCN2C(=O)[C@@H](Cc2ccccc2)NC1=O (stereo partly drawn) [Chlamydocin, (3R)-3-benzyl-6,6-dimethyl-9-[6-[(2R)-oxiran-2-yl]-6-oxohexyl]-1,4,7,10-tetrazabicyclo[10.3.0]pentadecane-2,5,8,11-tetrone], the IC50 [9] is listed as about 0.15 nM.

In the case of CC1=C2C[C@H]3[C@@H](CC=C4C[C@@H](O)CC[C@@]43C)[C@@H]2CC[C@]12O[C@@H]1C[C@H](C)CN[C@H]1[C@H]2C [Cyclopamine], the “generation of PDX1+ cells over base media alone” value ([10]; alone, conditions 2 and 3) is reported as “did not result in enhanced generation”.

For CC1NC(=O)C(C)NC(=O)C2CCCN2C(=O)C(CCCCCCC(=O)C2CO2)NC1=O [HC Toxin, (6R,9S,14aR)-3,6R-dimethyl-9S-(7-((S)-oxiran-2-yl)-7-oxoheptyl)decahydropyrrolo[1,2-a][1,4,7,10]tetraazacyclododecine-1,4,7, 10-tetranone], the IC50 [9] is listed as 30 nM.

With Cc1c(C(=O)Nc2ccc(N3C[C@@H](C)O[C@@H](C)C3)nc2)cccc1-c1ccc(OC(F)(F)F)cc1 [LDE225] the “screen result: increase” value [4] was “Confirmed hits”.

In the case of Nc1ccccc1NC(=O)c1ccc(CNc2nccc(-c3cccnc3)n2)cc1 [MGCD0103, N-(2-aminophenyl)-4-[[(4-pyridin-3-ylpyrimidin-2-yl)amino]methyl]benzamide], the IC50 [9] is listed as about 100 nM.

In the case of Nc1ccccc1NC(=O)c1ccc(CNC(=O)OCc2cccnc2)cc1 [MS-27-275], the IC50 [9] is listed as 100 to 1000 nM.

For CCNC(=O)[C@H]1O[C@@H](n2cnc3c(N)ncnc32)C(O)C1O (some centres unmarked) [NECA, 5′-N-ethylcarboxamidoadenosine], the “increase of conversion rate over the basal protocol” value ([11]; NECA added to NaB) was 5 fold and the “further increase of conversion rate over the improved condition” value ([11]; added to NaB) was 2 fold.

With C[S+]([O-])c1ccc(-c2nc(-c3ccc(F)cc3)c(-c3ccncc3)[nH]2)cc1 (centres unmarked) [SB203580, 4-(4-fluorophenyl)-2-(4-methylsulfinylphenyl)-5-(4-pyridyl)-1H-imidazole] the “number of insulin+/Pdx1+ double-positive cells” value [3] was “significantly increased”.

For CC(/C=C/C(=O)NO)=C\[C@@H](C)C(=O)c1ccc(N(C)C)cc1 [Trichostatin A, (R,2E,4E)-6-(4-(dimethylamino)benzoyl)-N-hydroxy-4-methylhepta-2,4-dienamide], the IC50 [9] is given as about 1.8 nM.

In the case of CC1=C(/C=C/C(C)=C/C=C/C(C)=C/C(=O)O)C(C)(C)CCC1 [retinoic acid], the PDX1 positive progenitors ([10]; days 6-8, alone or in combination (conditions 4, 5, 6), group 1) is reported as over 88%.
